Laboratory results taken from patent US12539292B2, “BRM targeting compounds and associated methods of use” (Arvinas Operations, Inc., priority 2018, dated 2026).
Read-outs that look alike come from different tables or passages of the source.

Target: T1, BRM (Homo sapiens, UniProt P51531)
T1 construct: In-Cell Western Screen of BRM Degradation in SW1573 Cells; endogenous in cells; host or cells: SW1573
Assay: In-cell Western screen of BRM degradation in SW1573 cells (Dmax and DC50)
Type: cell-based
Conditions: BRM degradation, SW1573 cells; for Dmax (%) (% degraded): tested at the top concentration of between 0.3 and 10 μM
Protocol: In-Cell Western Screen of BRM Degradation in SW1573 Cells
To assess BRM degradation (Dmax and DC50), cells were seeded at 8000/well in 96-well black/clear-bottom plates in 180 μL DMEM growth media (containing 1% pen-strep, 1% HEPES and 10% FBS) per well. Plates were incubated overnight to allow adhesion. The next morning cells were treated by adding 20 μL of 10× compound (1% DMSO) to appropriate wells and returned to incubator for overnight (18-20 hours). The final DMSO concentration was 0.1%.
For processing, the plates were removed from incubator, the media was removed, and immediately 200 μL of cold (4° C.) DPBS was added to all wells. DPBS was then removed, and 50 μL of 4% paraformaldehyde (PFA) in DPBS (4° C.) was added to all wells, and the plates were incubated at room temperature for 20 minutes. PFA was then removed, and 200 μL of TBS-T containing 0.5% Triton X-100 was added to all wells, and the plates were incubated at room temperature for 30 minutes. TBS-T containing 0.5% Triton X-100 was then removed, and 50 μL of Li-Cor blocking solution was added, and the plates were incubated at room temperature for a minimum of one hour.
The next day plates were washed three times with TBS-T, 200 μL per well. Fifty (50) μL of secondary antibody cocktail in LI-COR blocking solution (anti-rabbit_800 nm and anti-mouse_680 nm) was added to all wells (diluted 1:5000). The plates were incubated at room temperature for at least one hour while protected from light. The plates were washed twice with TBS-T, 200 μL per well.
To read each plate TBS-T was removed, and each plate was inverted tapped on a paper towel. The plates were read on the LI-COR Odyssey with default intensity settings of 5.0 for both channels. LI-COR images were analyzed with the in-cell Western feature of Image Studio Lite.

[1] = Table 2D, read-out: **Dmax (%) (% degraded)
[2] = when tested at the top concentration of between 0.3 and 10 μM, read-out: Dmax (%) (% degraded)

T1 sequence (P51531 whole entry): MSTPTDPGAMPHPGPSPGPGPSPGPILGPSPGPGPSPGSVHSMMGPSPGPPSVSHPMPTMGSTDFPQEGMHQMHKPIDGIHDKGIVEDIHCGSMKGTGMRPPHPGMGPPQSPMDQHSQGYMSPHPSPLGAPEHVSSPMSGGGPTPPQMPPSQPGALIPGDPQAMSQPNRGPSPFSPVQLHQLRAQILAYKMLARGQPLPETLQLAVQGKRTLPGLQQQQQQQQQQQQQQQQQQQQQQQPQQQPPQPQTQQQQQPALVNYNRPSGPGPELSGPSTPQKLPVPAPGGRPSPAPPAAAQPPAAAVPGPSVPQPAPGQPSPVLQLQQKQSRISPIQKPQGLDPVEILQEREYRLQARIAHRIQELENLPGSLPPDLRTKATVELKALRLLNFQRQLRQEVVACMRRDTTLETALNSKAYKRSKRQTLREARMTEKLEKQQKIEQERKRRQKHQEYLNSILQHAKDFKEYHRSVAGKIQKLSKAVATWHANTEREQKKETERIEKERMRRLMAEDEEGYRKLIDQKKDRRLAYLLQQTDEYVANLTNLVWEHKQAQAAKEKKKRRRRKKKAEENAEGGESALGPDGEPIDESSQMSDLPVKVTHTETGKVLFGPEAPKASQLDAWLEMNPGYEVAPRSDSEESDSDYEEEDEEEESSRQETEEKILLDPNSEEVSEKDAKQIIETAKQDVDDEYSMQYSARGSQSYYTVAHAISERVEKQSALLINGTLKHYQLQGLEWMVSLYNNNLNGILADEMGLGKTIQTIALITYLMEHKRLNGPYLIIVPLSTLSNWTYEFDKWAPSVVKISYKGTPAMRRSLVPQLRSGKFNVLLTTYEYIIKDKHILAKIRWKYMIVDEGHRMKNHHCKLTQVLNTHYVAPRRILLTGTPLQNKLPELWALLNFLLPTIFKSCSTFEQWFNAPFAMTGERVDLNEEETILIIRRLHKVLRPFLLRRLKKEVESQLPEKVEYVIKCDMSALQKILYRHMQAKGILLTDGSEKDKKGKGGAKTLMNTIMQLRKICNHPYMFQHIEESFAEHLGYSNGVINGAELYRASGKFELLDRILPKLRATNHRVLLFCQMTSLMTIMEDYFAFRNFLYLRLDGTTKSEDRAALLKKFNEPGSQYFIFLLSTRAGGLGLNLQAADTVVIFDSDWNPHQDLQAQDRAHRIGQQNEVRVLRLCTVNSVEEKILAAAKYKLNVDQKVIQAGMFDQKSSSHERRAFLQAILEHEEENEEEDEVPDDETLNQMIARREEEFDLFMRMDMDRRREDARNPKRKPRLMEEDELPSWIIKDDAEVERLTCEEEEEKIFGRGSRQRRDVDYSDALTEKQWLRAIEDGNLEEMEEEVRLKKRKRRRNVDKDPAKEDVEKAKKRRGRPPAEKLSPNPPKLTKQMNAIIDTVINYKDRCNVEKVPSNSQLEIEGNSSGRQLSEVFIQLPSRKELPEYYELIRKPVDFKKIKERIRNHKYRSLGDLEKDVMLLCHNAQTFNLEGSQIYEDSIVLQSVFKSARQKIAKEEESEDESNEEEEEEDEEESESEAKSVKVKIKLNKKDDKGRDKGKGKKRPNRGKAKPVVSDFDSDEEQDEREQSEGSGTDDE

Compound | DC50 (read-out: DC50) [nM] | Dmax (read-out: Dmax (% degraded)) [%] | other results
Cc1ncsc1-c1ccc([C@H](C)NC(=O)[C@@H]2C[C@@H](O)CN2C(=O)[C@H](c2cc(N3CCC(OC4CCN(CC5CC(CN6CCC([C@@H](C)n7cc(-c8cc(-c9ccccc9O)nnc8N)cn7)CC6)C5)CC4)CC3)no2)C(C)C)cc1 (single isomer, unassigned) [compound 595] | – | – | Dmax [1]: > 75%; DC50 (Table 2D, read-out: *DC50): < 2.5 nM
Cc1ncsc1-c1ccc([C@H](C)NC(=O)[C@@H]2C[C@@H](O)CN2C(=O)[C@@H](c2cc(N3CCC(OC4CCN(CC5CC(CN6CCC([C@@H](C)n7cc(-c8cc(-c9ccccc9O)nnc8N)cn7)CC6)C5)CC4)CC3)no2)C(C)C)cc1 (single isomer, unassigned) [compound 596] | – | – | Dmax [1]: > 75%; DC50 (Table 2D, read-out: *DC50): < 2.5 nM
Cc1ncsc1-c1ccc([C@H](C)NC(=O)[C@@H]2C[C@@H](O)CN2C(=O)[C@@H](c2cc(OCCN3CC[C@@H](O[C@H]4C[C@H](Oc5cc(N6C7CCC6CN(c6cc(-c8ccccc8O)nnc6N)C7)ccn5)C4)C[C@H]3C)no2)C(C)C)cc1 (single isomer, unassigned) [compound 634] | < 2.5 | > 75 | –
Cc1ncsc1-c1ccc([C@H](C)NC(=O)[C@@H]2C[C@@H](O)CN2C(=O)[C@@H](c2cc(OCCN3CC[C@H](O[C@H]4C[C@H](Oc5cc(N6C7CCC6CN(c6cc(-c8ccccc8O)nnc6N)C7)ccn5)C4)C[C@@H]3C)no2)C(C)C)cc1 (single isomer, unassigned) [compound 636] | < 2.5 | > 75 | –
Cc1nccn1-c1ccc([C@H](C)NC(=O)[C@@H]2C[C@@H](O)CN2C(=O)[C@H](c2cc(N3CCC(CN4CCC(O[C@H]5C[C@H](C#C[C@@H](C)n6cc(-c7cc(-c8ccccc8O)nnc7N)cn6)C5)CC4)CC3)no2)C(C)C)cc1 (single isomer, unassigned) [compound 637] | 2.5 to 10 | > 75 | –
Cc1nccn1-c1ccc([C@H](C)NC(=O)[C@@H]2C[C@@H](O)CN2C(=O)[C@@H](c2cc(N3CCC(CN4CCC(O[C@H]5C[C@H](C#C[C@@H](C)n6cc(-c7cc(-c8ccccc8O)nnc7N)cn6)C5)CC4)CC3)no2)C(C)C)cc1 (single isomer, unassigned) [compound 638] | < 2.5 | > 75 | –
Cc1ncsc1-c1ccc([C@H](C)NC(=O)[C@@H]2C[C@@H](O)CN2C(=O)[C@@H](c2cc(N3CCC[C@H](CN4CCC(O[C@H]5C[C@H](Oc6cc(N7C8CCC7CN(c7cc(-c9ccccc9O)nnc7N)C8)ccn6)C5)CC4)C3)no2)C(C)C)cc1 (single isomer, unassigned) [compound 656] | < 2.5 | > 75 | –
Cc1ncsc1-c1ccc([C@H](C)NC(=O)[C@@H]2C[C@@H](O)CN2C(=O)[C@@H](c2cc(N3CCC[C@@H](CN4CCC(O[C@H]5C[C@H](Oc6cc(N7C8CCC7CN(c7cc(-c9ccccc9O)nnc7N)C8)ccn6)C5)CC4)C3)no2)C(C)C)cc1 (single isomer, unassigned) [compound 657] | < 2.5 | > 75 | –
CC(C)[C@H](C(=O)N1C[C@H](O)C[C@H]1C(=O)N[C@@H](C)c1ccc(C#N)cc1)c1cc(N2CCC(CN3CCC(O[C@H]4C[C@H](C#C[C@@H](C)n5cc(-c6cc(-c7ccccc7O)nnc6N)cn5)C4)CC3)CC2)no1 (single isomer, unassigned) [compound 697] | > 30 | – | –
CC(C)[C@@H](C(=O)N1C[C@H](O)C[C@H]1C(=O)N[C@@H](C)c1ccc(C#N)cc1)c1cc(N2CCC(CN3CCC(O[C@H]4C[C@H](C#C[C@@H](C)n5cc(-c6cc(-c7ccccc7O)nnc6N)cn5)C4)CC3)CC2)no1 (single isomer, unassigned) [compound 698] | < 2.5 | > 75 | –
Cc1ncsc1-c1ccc([C@H](C)NC(=O)[C@@H]2C[C@@H](O)CN2C(=O)C(C(C)C)n2cc(OCCN3CCN(CCOc4cc(N5C6CCC5CN(c5cc(-c7ccccc7O)nnc5N)C6)ccn4)CC3)cn2)cc1 (stereo in doubt) [compound 38, (2S,4R)-1-[(2R)-2-[4-[2-(4-[2-[(4-[3-[3-amino-6-(2-hydroxyphenyl)pyridazin-4-yl]-3,8-diazabicyclo[3.2.1]octan-8-yl]pyridin-2-yl)oxy]ethyl]piperazin-1-yl)ethoxy]-1H-pyrazol-1-yl]-3-methylbutanoyl]-4-hydroxy-N-[(1S)-1-[4-(4-methyl-1,3-thiazol-5-yl)phenyl]ethyl]pyrrolidine-2-carboxamide] | 10 to 30 | – | Dmax [2]: > 75%
Cc1ncsc1-c1ccc([C@H](C)NC(=O)[C@@H]2C[C@@H](O)CN2C(=O)C(C(C)C)n2cc(OCCN3CCN(CCOc4cc(N5C6CCC5CN(c5cc(-c7ccccc7O)nnc5N)C6)ccn4)CC3)cn2)cc1 (stereo in doubt) [compound 39, (2S,4R)-1-[(2S)-2-[4-[2-(4-[2-[(4-[3-[3-amino-6-(2-hydroxyphenyl)pyridazin-4-yl]-3,8-diazabicyclo[3.2.1]octan-8-yl]pyridin-2-yl)oxy]ethyl]piperazin-1-yl)ethoxy]-1H-pyrazol-1-yl]-3-methylbutanoyl]-4-hydroxy-N-[(1S)-1-[4-(4-methyl-1,3-thiazol-5-yl)phenyl]ethyl]pyrrolidine-2-carboxamide] | > 30 | – | Dmax [2]: > 75%
Cc1ncsc1-c1ccc([C@H](C)NC(=O)[C@@H]2C[C@@H](O)CN2C(=O)C(c2cc(OCCn3cc(C(C)n4cc(-c5cc(-c6ccccc6O)nnc5N)cn4)ccc3=O)no2)C(C)C)cc1 (stereo in doubt) [compound 162, (2S,4R)-1-((2R)-2-(3-(2-(5-(1-(4-(3-amino-6-(2-hydroxyphenyl)pyridazin-4-yl)-1H-pyrazol-1-yl)ethyl)-2-oxopyridin-1(2H)-yl)ethoxy)isoxazol-5-yl)-3-methylbutanoyl)-4-hydroxy-N-((S)-1-(4-(4-methylthiazol-5-yl)phenyl)ethyl)pyrrolidine-2-carboxamide] | > 30 | – | Dmax (%) (% degraded): A (A > 75)
Cc1cnn(C)c1-c1ccc([C@H](C)NC(=O)[C@@H]2C[C@@H](O)CN2C(=O)C(c2cc(OCCN3CCN(CCOc4cc(N5C6CCC5CN(c5cc(-c7ccccc7O)nnc5N)C6)ccn4)CC3)no2)C(C)C)cc1 (stereo in doubt) [compound 194, (2S,4R)-1-((2R)-2-(3-(2-(4-(2-((4-(3-(3-amino-6-(2-hydroxyphenyl)pyridazin-4-yl)-3,8-diazabicyclo[3.2.1]octan-8-yl)pyridin-2-yl)oxy)ethyl)piperazin-1-yl)ethoxy)isoxazol-5-yl)-3-methylbutanoyl)-N-((S)-1-(4-(1,4-dimethyl-1H-pyrazol-5-yl)phenyl)ethyl)-4-hydroxypyrrolidine-2-carboxamide] | < 2.5 | – | Dmax (%) (% degraded): A (A > 75)
Cc1ncsc1-c1ccc(CNC(=O)[C@@H]2C[C@@H](O)CN2C(=O)[C@@H](NC(=O)COCCOCCOCCn2cc(-c3cc(-c4ccccc4O)nnc3N)cn2)C(C)(C)C)cc1 [compound 1, (2S,4R)-1-((S)-14-(4-(3-amino-6-(2-hydroxyphenyl)pyridazin-4-yl)-1H-pyrazol-1-yl)-2-(tert-butyl)-4-oxo-6,9,12-trioxa-3-azatetradecanoyl)-4-hydroxy-N-(4-(4-methylthiazol-5-yl)benzyl)pyrrolidine-2-carboxamide] | > 30 | – | Dmax [2]: > 75%
